Reference: patent publication US11324768B2, “Applications of triacetyl-3-hydroxyl phenyl adenosine in treating vascular inflammations or improving vascular endothelium functions” (priority 2016, dated 2022)

How the values were obtained:
AMPK-eNOS pathway = experiment: Mechanism of improving endothelial function (Western Blotting, total nitric oxide synthase activity in serum); format: in vivo; conditions: ApoE−/− mice
Experimental: (§1) After 1 week of adaptive feeding, the animals were randomly divided into 7 groups according to body weight: normal control group, model control group A769662 (30 mg/kg) administration group, metformin (260 mg/kg) administration group, IMM-H007 low, medium, and high administration groups (50, 100, 200 mg/kg), 8 in each group, and were given a high-fat diet (78.6% basal diet, 10% lard, 1.0% cholesterol, 10% egg yolk powder, and 0.4% bile salt), and simultaneously administered intragastrically at a dose of 0.1 ml/10 g body weight, and were continuously administered and fed for 8 weeks to establish an atherosclerosis model.
The expression levels of AMPK, pAMPK, peNOS, eNOS, Caveolin-1 proteins were analyzed and measured by Western Blotting to determine the total nitric oxide synthase activity in serum.

[1] = test system: third-order mesenteric artery; experiment: Mesenteric microvascular endothelial function in ApoE−/− mice (pressure myography, Ach / SNP relaxation); format: in vivo
Experimental: as §1
PSS and KPSS solutions were configured according to the instructions and used at the same time of the day. The PSS solution was taken out before the start of the experiment and pre-oxygenated for about 20 min. The ApoE−/− mice, which were fed with high-fat and simultaneously administered for 10 weeks, were anesthetized with pentobarbital sodium. The mice were supine and fixed. The abdominal cavity was opened along the median line. The mesenteric vascular bed was isolated and placed in the pre-oxygenated 20-minute PSS buffer. Under a stereomicroscope, a third-order mesenteric artery with a length of about 3 mm was carefully isolated. Firstly, the blood vessel was fixed to a P1 glass cannula and the coil was tightened. Note: the proximal end should be connected to the P1 end, and the P2 end vessel should be fixed and the coil should be tightened. The Chamber was placed on a objective table of the microscope and the data connection between Chamber and Interface was checked. The bath cover was covered and the oxygen was introduced, to exhaust air in the pipeline. The blood vessel image was found under the microscope and then the microscope was turned to camera mode. (The knob on the side of the eyepiece was rotated to graph.) MyoVIEW software was opened. The Camera window Capture was clicked to display the blood vessel image. The equilibration of blood vessels slowly rose from 10 mmHg to 60 mmHg, and each step was 300 s. After the equilibration procedure was completed, the solution in the bath was drained. Blood vessels were stimulated (10 ml) for 2 min using a 37° C. pre-heated KPSS solution, and changes in vasoconstriction were observed, and the blood vessels were then eluted using the PSS solution to baseline. The blood vessels were equilibrated at 60 mmHg 37° C. for 45 minutes, during which time the fluid was replaced every 20 minutes. The experiment was started: observing the vasodilatory response induced by 10^−10 to 10^−5 M Ach after pre-contraction with 2 μM phenylephrine, to evaluate the effect of the drugs on the vascular endothelial function. At the end of the experiment, the fresh 37° C. pre-heated PSS buffer was replaced for equilibration for 30 min, and the 10^−10M to 10^−3 M sodium nitroprusside were given to induce vasodilatory response after pre-contraction with 2 μM phenylephrine, to evaluate the effect of the drugs on vascular smooth muscle function. LD1 was the diameter of blood vessel after relaxation by administration of different concentrations of ACh or sodium nitroprusside, LD2 was the diameter of blood vessels after pre-contraction with phenylephrine, and LD3 represented the maximum diastolic diameter of blood vessel without any stimulant.
The relaxation response to Ach and sodium nitroprusside after pre-contraction with phenylephrine was expressed as the percentage increase in the vascular diameter: % Relaxation=(LD1−LD2)/(LD3−LD2)×100.

CC(=O)OCC1OC(n2cnc3c(Nc4cccc(O)c4)ncnc32)C(OC(C)=O)C1OC(C)=O (centres unmarked) [IMM-H007, 2′,3,′ 5′-triacetyl-N^6(3-hydroxyphenyl)adenosine]
NO production (AMPK-eNOS pathway): increases
AMPK-eNOS pathway (AMPK-eNOS pathway; Western Blotting): activation
activity of nitric oxide synthase (AMPK-eNOS pathway; serum): improves
sodium nitroprusside endothelium-independent relaxation of microvascular ([1]; 50 mg/kg, 1 × 10^−3 M SNP): 96.5 ± 6.3%
sodium nitroprusside endothelium-independent relaxation of microvascular ([1]; 50 mg/kg, 1 × 10^−4 M SNP): 80.3 ± 12.1%
acetylcholine-induced endothelium-dependent relaxation of microvascular ([1]; 50 mg/kg, 1 × 10^−5 M Ach): 95.0 ± 4.4 %
sodium nitroprusside endothelium-independent relaxation of microvascular ([1]; 50 mg/kg, 1 × 10^−5 M SNP): 74.5 ± 12.8%
acetylcholine-induced endothelium-dependent relaxation of microvascular ([1]; 50 mg/kg, 1 × 10^−6 M Ach): 87.3 ± 5.0 %
sodium nitroprusside endothelium-independent relaxation of microvascular ([1]; 50 mg/kg, 1 × 10^−6 M SNP): 66.4 ± 11.6%
acetylcholine-induced endothelium-dependent relaxation of microvascular ([1]; 50 mg/kg, 1 × 10^−7 M Ach): 48.7 ± 12.8%
sodium nitroprusside endothelium-independent relaxation of microvascular ([1]; 50 mg/kg, 1 × 10^−7 M SNP): 60.9 ± 8.5%
acetylcholine-induced endothelium-dependent relaxation of microvascular ([1]; 50 mg/kg, 1 × 10^−8 M Ach): 29.3 ± 21.8%
sodium nitroprusside endothelium-independent relaxation of microvascular ([1]; 50 mg/kg, 1 × 10^−8 M SNP): 52.9 ± 14.2%
acetylcholine-induced endothelium-dependent relaxation of microvascular ([1]; 50 mg/kg, 1 × 10^−9 M Ach): 12.9 ± 12.6%
sodium nitroprusside endothelium-independent relaxation of microvascular ([1]; 50 mg/kg, 1 × 10^−9 M SNP): 43.9 ± 18.2%
acetylcholine-induced endothelium-dependent relaxation of microvascular ([1]; 50 mg/kg, 1 × 10^−10 M Ach): 5.0 ± 5.1%
sodium nitroprusside endothelium-independent relaxation of microvascular ([1]; 50 mg/kg, 1 × 10^−10 M SNP): 19.9 ± 10.1%
microvascular endothelial dysfunction caused by high fat ([1]; 50 mg/kg, compared with the model control group): significantly improve
sodium nitroprusside endothelium-independent relaxation of microvascular ([1]; 100 mg/kg, 1 × 10^−3 M SNP): 96.5 ± 3.6%
sodium nitroprusside endothelium-independent relaxation of microvascular ([1]; 100 mg/kg, 1 × 10^−4 M SNP): 87.5 ± 10.9%
acetylcholine-induced endothelium-dependent relaxation of microvascular ([1]; 100 mg/kg, 1 × 10^−5 M Ach): 93.9 ± 12.9 %
sodium nitroprusside endothelium-independent relaxation of microvascular ([1]; 100 mg/kg, 1 × 10^−5 M SNP): 78.4 ± 13.0%
acetylcholine-induced endothelium-dependent relaxation of microvascular ([1]; 100 mg/kg, 1 × 10^−6 M Ach): 82.9 ± 8.5 %
sodium nitroprusside endothelium-independent relaxation of microvascular ([1]; 100 mg/kg, 1 × 10^−6 M SNP): 64.6 ± 12.2%
acetylcholine-induced endothelium-dependent relaxation of microvascular ([1]; 100 mg/kg, 1 × 10^−7 M Ach): 43.1 ± 21.8%
sodium nitroprusside endothelium-independent relaxation of microvascular ([1]; 100 mg/kg, 1 × 10^−7 M SNP): 51.5 ± 17.9%
acetylcholine-induced endothelium-dependent relaxation of microvascular ([1]; 100 mg/kg, 1 × 10^−8 M Ach): 18.6 ± 17.2%
sodium nitroprusside endothelium-independent relaxation of microvascular ([1]; 100 mg/kg, 1 × 10^−8 M SNP): 44.9 ± 21.9%
acetylcholine-induced endothelium-dependent relaxation of microvascular ([1]; 100 mg/kg, 1 × 10^−9 M Ach): 10.2 ± 12.0%
sodium nitroprusside endothelium-independent relaxation of microvascular ([1]; 100 mg/kg, 1 × 10^−9 M SNP): 33.9 ± 23.5%
acetylcholine-induced endothelium-dependent relaxation of microvascular ([1]; 100 mg/kg, 1 × 10^−10 M Ach): 2.37 ± 3.4%
sodium nitroprusside endothelium-independent relaxation of microvascular ([1]; 100 mg/kg, 1 × 10^−10 M SNP): 11.9 ± 13.5%
acetylcholine-induced endothelium-dependent relaxation response ([1]; 100 mg/kg, compared with the model control group): significantly improve
sodium nitroprusside endothelium-independent relaxation of microvascular ([1]; 200 mg/kg, 1 × 10^−3 M SNP): 96.9 ± 2.9%
sodium nitroprusside endothelium-independent relaxation of microvascular ([1]; 200 mg/kg, 1 × 10^−4 M SNP): 91.3 ± 6.2%
acetylcholine-induced endothelium-dependent relaxation of microvascular ([1]; 200 mg/kg, 1 × 10^−5 M Ach): 96.9 ± 14.2 %
sodium nitroprusside endothelium-independent relaxation of microvascular ([1]; 200 mg/kg, 1 × 10^−5 M SNP): 75.3 ± 12.6%
acetylcholine-induced endothelium-dependent relaxation of microvascular ([1]; 200 mg/kg, 1 × 10^−6 M Ach): 73.3 ± 17.5 %
sodium nitroprusside endothelium-independent relaxation of microvascular ([1]; 200 mg/kg, 1 × 10^−6 M SNP): 58.0 ± 21.3%
acetylcholine-induced endothelium-dependent relaxation of microvascular ([1]; 200 mg/kg, 1 × 10^−7 M Ach): 42.2 ± 20.8%
sodium nitroprusside endothelium-independent relaxation of microvascular ([1]; 200 mg/kg, 1 × 10^−7 M SNP): 44.9 ± 27.8%
acetylcholine-induced endothelium-dependent relaxation of microvascular ([1]; 200 mg/kg, 1 × 10^−8 M Ach): 32.0 ± 20.1%
sodium nitroprusside endothelium-independent relaxation of microvascular ([1]; 200 mg/kg, 1 × 10^−8 M SNP): 39.4 ± 24.2%
acetylcholine-induced endothelium-dependent relaxation of microvascular ([1]; 200 mg/kg, 1 × 10^−9 M Ach): 18.8 ± 17.5%
sodium nitroprusside endothelium-independent relaxation of microvascular ([1]; 200 mg/kg, 1 × 10^−9 M SNP): 28.9 ± 29.5%
acetylcholine-induced endothelium-dependent relaxation of microvascular ([1]; 200 mg/kg, 1 × 10^−10 M Ach): 9.5 ± 12.0%
sodium nitroprusside endothelium-independent relaxation of microvascular ([1]; 200 mg/kg, 1 × 10^−10 M SNP): 19.4 ± 3.05%
